Results: patent publication US20090202494A1, “Combined use of glp-1 agonists and gastrin for regulating blood glucose levels” (priority 2004, published 2009)

Columns and labels:
Type in all cases: in vivo, mouse
[1] = tested on: acutely-diabetic NOD mice; assay: Example 2: fasting blood glucose in acutely-diabetic NOD mice, during treatment and 6 weeks after
Method: (§1) The mice were monitored daily for urine glucose levels and weekly for FBG levels during the treatment and for an additional 6 weeks after the treatment was stopped. The pancreatic insulin levels were determined in each group as well as histological analysis of the pancreatic tissue was performed. Pancreatic tissues were fixed and stained for insulin producing cells. The beta cell mass was determined by morphometric analysis.

[2] = tested on: acutely-diabetic NOD mice; assay: Example 1: fasting blood glucose in acutely-diabetic NOD mice treated with GLP-1 or GLP-1 + Gastrin
Method: Female NOD mice ages 12-16 weeks were treated for 18 days only with vehicle (PBS), GLP-1 (300 μg/kg/day), or GLP-1 (300 μg/kg/day)+Gastrin (3 μg/kg/day), by injection intraperitoneally twice daily within 2 days after diabetes onset. Onset of diabetes was determined by fasting blood glucose (FBG) levels (9-15 mM compared with normal FBG <6.0 mM). The mice were monitored daily for urine glucose and weekly for FBG levels.
At the start of the treatments, fasting blood glucose levels ranged between 11-14 mM. After 18 days of treatments, FBG was 24±1 mM in vehicle-treated mice, 13±2 mM in mice treated with GLP-1 alone, and 6±1 mM in mice treated with the combination of GLP-1 and Gastrin (mean±SE, n=4 mice in treated groups; n=6 mice in the control group).
After 18 days of treatment therapy was stopped and FBG was monitored weekly for additional six weeks. […] Comparatively, the untreated group of animals had to be sacrificed due to the severity of the disease after five weeks.

[3] = tested on: acutely-diabetic NOD mice; assay: Example 2: pancreatic insulin levels in NOD mice
Method: as §1

With GLP-1(7-36) Amide, Human the “fasting blood glucose after 18 days of daily treatments” value ([1]; NOD mice, i.p. twice daily, combination printed as 30 μg/kg/day of GLP-1 and 3 μg/kg/day of G1) was 12.5 ± 2.2 mM, the “maximal blood glucose levels reached post treatment” value ([1]; after treatments stopped, animals suffering from diabetic complications) was “over 30 mM” and the “FBG course during six weeks after treatment was stopped” value ([2]; FBG monitored weekly for six weeks post treatment) was “transient improvement in FBG levels up to 2 weeks after the treatment was stopped”. The “fasting blood glucose (FBG) after 18 days of treatments” value ([2]; female NOD mice, i.p. twice daily for 18 days, GLP-1 300 μg/kg/day, Gastrin 3 μg/kg/day, mean±SE, n=4, normal FBG <6.0 mM) was 13 ± 2 mM and the “effect on pancreatic insulin levels (in words)” value [3] was “modest effect only”.
